Measurements reported in patent US7026309B2, “Fused bicyclic pyridine derivative as tachykinin receptor antagonist” (Kyorin Pharmaceutical Co., Ltd., priority 2002, dated 2006).

Legend:
[1] = tested on: effective bladder capacity; assay: Cystometry test on guinea pigs with cut spinal cord; type: in vivo; conditions: guinea pig
Source text: (2) Cystometry Test on Guinea Pigs
The method used was according to the method proposed by JS. Peterson et al. (Peterson J S. et al., J. Pharmacol. Methods 21(1989): 231), to which minor modifications were made.
Guinea pigs were anesthetized with halothane and the tenth thoracic spinal cord was cut in each animal. Subsequently, both ureters were ligated and were cut on the kidney-side. Polyethylene catheters were inserted into the bladder to provide an injection pathway for physiological saline and a pathway for the measurement of intravesical pressure. Each animal was restricted in a Ballman cage and was left for more than 2 hours. Subsequently, room-temperature saline was injected through the bladder catheter into the bladder at a rate of 6 mL/hr to conduct a cystometry test. Once the effective bladder capacity was stabilized, a test compound was intravenously administered into the jugular vein. The effective bladder capacity is defined as the volume of saline injected from one urination to the next. The effect of each test compound was determined as the increase in the average bladder volume, which was determined based on the average bladder volume measured 30 minutes prior to the administration of the test compound and the average bladder volume measured every 30 minutes after the administration of the test compound.

NK1 receptor = biological target: T1, NK1 receptor (Cavia porcellus, UniProt P30547); assay: Test for NK1 receptor antagonist: substance P concentration-response in isolated guinea pig ileum, Schild analysis; type: cell-based; conditions: substance P as agonist, 10 min pretreatment, method of Schild
T1 construct: from tissue; host or cells: isolated guinea pig ileum
Description: (1) Test for NK1 Receptor Antagonist
The method used was according to the method proposed by S. Dion et al. (Dion et al., Life Sciences 41(1987): 2269), to which minor modifications were made.
Guinea pigs were stunned by a blow on the head and were exsanguinated from the carotid artery and ilea were isolated. The ileum was mounted in an organ bath containing Tyrode's solution which was maintained at 32° C. and gased with 95% O2 and 5% CO2. The ileum was subjected to a resting tension of 1-gram and allowed to equilibrate for 20 minutes before the experiment was started. As a control, a concentration-response curve for substance P in the absence of any of test compounds was used. The NK1 receptor antagonist activity of each test compound was determined by a concentration-response curve obtained by pretreating at least three concentrations of the test compound for 10 minutes and subsequently applying substance P in a cumulative manner. The Kb values were determined according to the method of Schild and the results are shown in Table 1 (Schild Brit. J. Pharmacol. 14(1959): 48).
The composition of the Tyrode's solution was as follows: NaCl=136.9, KCl=2.7, CaCl2.2H2O=2.5, MgCl2.6H2O=1.0, NaH2PO4.2H2O=0.4, NaHCO3=11.9, glucose=11.1 (mmol/L).

T1 sequence (P30547 whole entry): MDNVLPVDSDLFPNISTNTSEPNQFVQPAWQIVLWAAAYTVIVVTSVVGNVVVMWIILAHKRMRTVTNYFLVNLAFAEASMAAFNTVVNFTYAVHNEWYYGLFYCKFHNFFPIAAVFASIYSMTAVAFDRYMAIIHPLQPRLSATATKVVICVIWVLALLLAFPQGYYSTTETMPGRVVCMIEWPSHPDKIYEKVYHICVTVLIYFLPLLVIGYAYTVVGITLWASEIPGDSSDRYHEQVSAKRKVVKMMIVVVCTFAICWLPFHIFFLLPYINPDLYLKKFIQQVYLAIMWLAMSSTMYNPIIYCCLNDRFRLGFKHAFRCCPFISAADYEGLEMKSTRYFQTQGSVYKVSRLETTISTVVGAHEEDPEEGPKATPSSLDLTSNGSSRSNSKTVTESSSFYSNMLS

| Compound | Increase in bladder capacity (%) ([1]; 0.3 mg/kg i.v.) | Increase in bladder capacity (%) ([1]; 1 mg/kg i.v.) | Increase in bladder capacity (%) ([1]; 3 mg/kg i.v.) | Kb (NK1 receptor) |
| --- | --- | --- | --- | --- |
| Cc1ccc(-c2c3n(c(=O)c4ncccc24)CC[C@@H](C)CN(Cc2cc(C(F)(F)F)cc(C(F)(F)F)c2)C3=O)cc1 [TAK-637] | 12.0% | 23.8% | 20.5% | 0.269 nM |
| CC(=O)N1CCN(c2cc(-c3ccc(F)cc3)c3c(n2)OCCCN(Cc2cc(C(F)(F)F)cc(C(F)(F)F)c2)C3=O)CC1 [Example 2, 9-(4-acetylpiperazine-1-yl)-5-[3,5-bis(trifluoromethyl)benzyl]-7-(4-fluorophenyl)-6-oxo-2,3,4,5-tetrahydro-6H-pyrido[2,3-b][1,5]oxazocine] | – | – | – | 0.0847 nM |
| CC(=O)N1CCCN(c2cc(-c3ccccc3C)c3c(n2)OCCCN(Cc2cc(C(F)(F)F)cc(C(F)(F)F)c2)C3=O)CC1 [Example 6, 9-(4-acetylhomopiperazine-1-yl)-5-[3,5-bis(trifluoromethyl)benzyl]-7-(2-methylphenyl)-6-oxo-2,3,4,5-tetrahydro-6H-pyrido[2,3-b][1,5]oxazocine] | – | – | – | 0.294 nM |
| CC(=O)N1CCN(c2cc(-c3ccccc3C)c3c(n2)OCCCN(Cc2cc(C(F)(F)F)cc(C(F)(F)F)c2)C3=O)CC1 [Example 1, 9-(4-acetylpiperazine-1-yl)-5-[3,5-bis(trifluoromethyl)benzyl]-7-(2-methylphenyl)-6-oxo-2,3,4,5-tetrahydro-6H-pyrido[2,3-b][1,5]oxazocine] | 32.2% | – | – | 0.0888 nM |
